{
  "source": "patent US20230183305A1",
  "about": "“KERATIN BD-11, PREPARATION METHOD THEREFOR AND PHARMACEUTICAL COMPOSITION AND USE THEREOF” (INSTITUTE OF MATERIA MEDICA, CHINESE ACADEMY OF MEDICAL …, priority 2019, published 2023)",
  "format_in_all_cases": "in vivo, mouse",
  "key": {"[1]": {"test_system": "ammonia water induced cough in ICR mice", "assay": "Antitussive test, cough induced by ammonia water in mice", "method": "• Animals: male ICR mice; • Drugs and reagents: dextromethorphan hydrobromide, ammonia water, 0.2% CMC-Na, protein BD-11; • Apparatus: Compressed nebulizer (403T type), balance (XS105DU type).\nExperiment grouping: • Solvent control group; • Dextromethorphan 15 mg/kg group; • Protein BD-11, 20 mg/kg group, 50 mg/kg group.\nDextromethorphan and different doses of protein BD-11 (administration volume 10 ml/kg) were given orally in groups, and the solvent control group was given the same volume of distilled water. One hour later, mice were put into a sealed box and atomized 10% ammonia water for 10 seconds, and then observed and recorded the incubation period of cough in mice and the number of coughs in 2 minutes.\nRecord the time point of oral administration, the time point of atomization experiment, the incubation period of mice cough and the number of coughs within 2 minutes, respectively. The incubation period of cough refers to the number of seconds from the start of the atomization of ammonia to the occurrence of cough. The performance of coughing in mice is based on contraction of their abdominal muscles (breast contraction) and opening their mouths at the same time. Calculate the mean and standard error of each group of data, and use TTEST to compare the model group with other groups, and P<0.05 is considered as a significant difference.\nGive dextromethorphan (15 mg/kg) and different doses of protein BD-11 (20 mg/kg, 50 mg/kg) in advance, One hour later, the mice were put into a sealed box and atomized 10% ammonia water for 10 seconds, and then the mice were observed and recorded the incubation period of coughing and the number of coughs within 2 minutes."}, "[2]": {"test_system": "PLO-induced epilepsy in ICR mice", "assay": "Pilocarpine (PLO) induced convulsive epilepsy in mice", "design": "mortality rate: unit not given here", "conditions": "Diazepam 2 mg/kg", "method": "• Animals: male ICR mice; • Drugs: Pilocarpine HCl (PLO, pilocarpine, pilocarpine hydrochloride), Diazepam (diazepam tablets), protein BD-11.\nExperiment grouping: • Model group: • Diazepam 2 mg/kg group; • Protein BD-11, 50 mg/kg group, 200 mg/kg group.\nThe drug was administered once in the afternoon the day before modeling, PLO-225 mg/kg (modeling agent) was injected intraperitoneally 1 hour after the test drug was administered intragastrically on the day of modeling. And positive drug can be administered once 20 minutes before modeling. Observe for 30 minutes after PLO injection.\nObservation indicators: ①Seizure situation: the time of seizures from Grade II to Grade IV; (2)the time to death.\n(§1) Seizure grade: Refer to Racine grading standard: Grade 0: No response; Grade I: manifested as twitching of facial muscles or the corners of the mouth; Grade II: can nod; Grade III: twitching of one limb; Grade IV: rigidity or body twitching; Grade V: generalized epilepsy (generalized tonic seizures).\nCount the number of Grade IV seizures and deaths in each group of mice in the experiment; Grade II, III and IV incubation period. […] Chi-square test was used for statistics of the number of cases. The mean value and standard error of the incubation period were calculated, and TTEST was used to compare the model group with other groups. P<0.05 was considered as a significant difference."}, "[3]": {"test_system": "PTZ-induced epilepsy in ICR mice", "assay": "Pentylenetetrazole (PTZ) induced epilepsy in mice", "conditions": "Retigabine 60 mg/kg", "method": "• Animals: male ICR mice; • Medicines: Pentylenetetrazol (PTZ), Retigabine, Protein BD-11.\nExperiment grouping: • Model group; • Retigabine 60 mg/kg group; • Protein BD-11, 50 mg/kg group, 200 mg/kg group;\nThe drug was administered once in the afternoon the day before modeling, On the day of modeling, PTZ-65 mg/kg (modeling agent) was injected intraperitoneal 1 hour after the test drug was administered intragastrically, and the positive drug can be administered once half an hour before modeling. Continue to observe for 15 minutes after injection of PTZ.\nObservation index: ①Seizure situation: the time of seizures from Grade III to […]; ②Death situation\nas §1\nCount the cases of seizures and deaths in each group of mice in the experiment; Grade III and IV incubation period. The incubation period of mice that have not attacked to Grade IV is recorded as the maximum of 900 seconds. Chi-square test was used for statistics of the number of cases. Calculate the mean and standard error of the incubation period. Use TTEST to compare the model group with other groups, and P<0.05 is considered as a significant difference."}},
  "note": "Counter-ions that a name gives are not always drawn. Marks after values point to notes of the source that are not given here.",
  "data": [
    {"smiles": "COc1ccc2c(c1)[C@]13CCCC[C@@H]1[C@H](C2)N(C)CC3", "note": "[Dextromethorphan, dextromethorphan hydrobromide, reference compound]", "values": [
      {"measurement": "Incubation period (cough)", "setting": "[1]; Dextromethorphan 15 mg/kg oral, 10% ammonia water 10 s, X±SEM, n=9", "value": "38.4 ± 4.5", "unit": "s"},
      {"measurement": "Number of coughs", "setting": "[1]; Dextromethorphan 15 mg/kg oral, within 2 minutes, X±SEM, n=9", "value": "34.0±2.9"},
      {"measurement": "Incubation period and number of coughs vs solvent control group", "setting": "[1]; dextromethorphan 15 mg/kg, P<0.05", "value": "significant improvement"}
    ]},
    {"smiles": "CN1C(=O)CN=C(c2ccccc2)c2cc(Cl)ccc21", "note": "[Diazepam, reference compound]", "values": [
      {"measurement": "Cases of deaths", "setting": "[2]; PLO 225 mg/kg i.p., 10 mice", "value": 0},
      {"measurement": "Grade IV seizure rate", "setting": "[2]; PLO 225 mg/kg i.p., 10 mice", "value": "0**"},
      {"measurement": "mortality rate", "setting": "[2]; PLO 225 mg/kg i.p., 10 mice", "value": 0},
      {"measurement": "Cases of Grade IV", "setting": "[2]; PLO 225 mg/kg i.p., 10 mice, 30 min observation", "value": "0**"},
      {"measurement": "Grade II seizure incubation period", "setting": "[2]; PLO model, mean±SEM", "value": "109 ± 8", "unit": "s"},
      {"measurement": "Grade III seizure incubation period", "setting": "[2]; PLO model, mean±SEM", "value": "182 ± 14", "unit": "s"},
      {"measurement": "Grade IV seizure incubation period", "setting": "[2]; PLO model, mean±SEM, no Grade IV recorded as maximum 1800 s", "value": "1800 ± 0", "unit": "s"}
    ]},
    {"smiles": "CCOC(=O)Nc1ccc(NCc2ccc(F)cc2)cc1N", "note": "[Retigabine, reference compound]", "values": [
      {"measurement": "Cases of deaths", "setting": "[3]; PTZ 65 mg/kg i.p., 10 mice", "value": 0},
      {"measurement": "Grade IV seizure rate", "setting": "[3]; PTZ 65 mg/kg i.p., 10 mice", "value": 20, "unit": "%**"},
      {"measurement": "mortality rate", "setting": "[3]; PTZ 65 mg/kg i.p., 10 mice", "value": 0},
      {"measurement": "Cases of Grade IV", "setting": "[3]; PTZ 65 mg/kg i.p., 10 mice, 15 min observation", "value": "2**"},
      {"measurement": "Grade III seizure incubation period", "setting": "[3]; PTZ model, mean±SEM", "value": "83 ± 7", "unit": "s"},
      {"measurement": "Grade IV seizure incubation period", "setting": "[3]; PTZ model, mean±SEM, no Grade IV recorded as maximum 900 s", "value": "745 ± 103", "unit": "s"}
    ]}
  ]
}
